Consider one substance from patent publication US20040235965A1, “Utilization of rutins and aescins in the treatment of circulatory disturbances of the ear” (priority 2001, published 2004).

Holding throughout (assay type): in vivo, human
For test [1], the system named is patient with hearing impairment. Nature of the test: Pure-tone threshold audiometry in patient case examples under oral therapy. To be noted: 2250 mg troxerutin orally daily. An excerpt:
(§1) patient with tinnitus and vertigo attacks for 4 months.
Moderate hearing loss existed which was confirmed by pure-tone threshold audiometry to be a loss of hearing especially in the low and high frequency ranges. The underlying disease present was insulin-dependent diabetes mellitus. The findings existed for 4 months with the tendency for progressive worsening. […]

Test [2] has as its system patient with tinnitus and vertigo attacks. Nature of the test: Frequency of vertigo attacks in patient case example 3. The conditions noted are these: Case 3; 2250 mg troxerutin orally daily, 4-week therapy. How it is done:
as §1
(§2) A 4-week therapy with 2250 mg of troxerutin orally daily followed. Under this, hearing improved in the 1st week by 10 dB in the low frequency range and by 5 dB in the high frequency range. There was no change in the frequency of vertigo attacks (1 to 4 times within 2 days).

Test [3] shares this test system. The test can be described thus: Tinnitus pattern in patient case example 3. The conditions noted are these: Case 3; 2250 mg troxerutin orally daily; 4th week of treatment. As for the experimental part:
as §1, §2

On to “3′,4′,7-tris-O-(β-hydroxyethyl)rutin [troxerutin]”, for which, in test [1] (Case 1, 4-week therapy), the “improvement in the audiogram, high-frequency range, right ear” value came out at 10 dB. The “improvement of audiogram, high frequency range” value in test [1] (Case 2, after 1 week) is listed as “minor improvement”. Besides, the “improvement of audiogram, low frequency range” value in test [1] (Case 2, after 1 week) is on record as 10 dB. In addition, the “improvement of hearing, low frequency range” value in test [1] (Case 3, moderate hearing loss, 1st week) was found to be 10 dB; in test [1] (Case 4, week 3), 10 dB. In addition, the “improvement of hearing, high frequency range” value is 5 dB in test [1] (Case 3, 1st week) and “marginally” in test [1] (Case 4, week 3). In addition, the “frequency of vertigo attacks” value in test [2] is listed as “no change”. The tinnitus pattern result in test [3] was “intermittent with relatively frequent absences which lasted for hours”.
